# Measured values reported in patent publication US9113629B2, “4-amino-6-(4-substituted-phenyl)-picolinates and 6-amino-2-(4-substituted-phenyl)-pyrimidine-4-carboxylates and their use as herbicides” (DOW AGROSCIENCES LLC, priority 2013, dated 2015).
# Tested on: Key Broadleaf Weed and Crop Species
# Assay: Post-emergent Test II herbicidal activity (Table 5)
# Assay type: in vivo
# Settings: post-emergence, 336 h; ABUTH: velvetleaf (Abutilon theophrasti); 70 g ai/ha; post-emergent; 14 days after application; read-out: Visual Growth Reduction (%) 14 Days After Application ABUTH
# How it was run: (§1)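 Visual injury ratings (0 = no injury, 100 = complete kill) were taken 14 d after treatment, relative to untreated plants. Seedlings at the first–second true leaf stage received overhead spray at 187 L/ha; the highest rate was serially diluted to ½×, ¼×, ⅛× and 1/16×.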
row,SMILES,pest or weed control at 70 g/ha [%]
1,Nc1cc(-c2ccc(I)cc2F)nc(C(=O)O)c1Cl [Compound 124],85 to 94

# Same assay, conditions: post-emergence, 336 h; ABUTH: velvetleaf (Abutilon theophrasti); 140 g ai/ha; post-emergent; 14 days after application; read-out: Visual Growth Reduction (%) 14 Days After Application ABUTH
row,SMILES,pest or weed control at 140 g/ha [%]
1,Nc1cc(-c2ccc(I)cc2F)nc(C(=O)O)c1Cl [Compound 124],85 to 94

# Same assay, conditions: post-emergence, 336 h; AMARE: redroot pigweed (Amaranthus retroflexus); 70 g ai/ha; post-emergent; 14 days after application; read-out: Visual Growth Reduction (%) 14 Days After Application AMARE
row,SMILES,pest or weed control at 70 g/ha [%]
1,Nc1cc(-c2ccc(I)cc2F)nc(C(=O)O)c1Cl [Compound 124],95 to 100

# Same assay, conditions: post-emergence, 336 h; AMARE: redroot pigweed (Amaranthus retroflexus); 140 g ai/ha; post-emergent; 14 days after application; read-out: Visual Growth Reduction (%) 14 Days After Application AMARE
row,SMILES,pest or weed control at 140 g/ha [%]
1,Nc1cc(-c2ccc(I)cc2F)nc(C(=O)O)c1Cl [Compound 124],95 to 100

# Same assay, conditions: post-emergence, 336 h; BRSNN: oilseed-rape, canola (Brassica napus); 70 g ai/ha; post-emergent; 14 days after application; read-out: Visual Growth Reduction (%) 14 Days After Application BRSNN
row,SMILES,pest or weed control at 70 g/ha [%]
1,Nc1cc(-c2ccc(I)cc2F)nc(C(=O)O)c1Cl [Compound 124],95 to 100

# Same assay, conditions: post-emergence, 336 h; BRSNN: oilseed-rape, canola (Brassica napus); 140 g ai/ha; post-emergent; 14 days after application; read-out: Visual Growth Reduction (%) 14 Days After Application BRSNN
row,SMILES,pest or weed control at 140 g/ha [%]
1,Nc1cc(-c2ccc(I)cc2F)nc(C(=O)O)c1Cl [Compound 124],95 to 100

# Same assay, conditions: post-emergence, 336 h; CHEAL: lambsquarters (Chenopodium album); 70 g ai/ha; post-emergent; 14 days after application; read-out: Visual Growth Reduction (%) 14 Days After Application CHEAL
row,SMILES,pest or weed control at 70 g/ha [%]
1,Nc1cc(-c2ccc(I)cc2F)nc(C(=O)O)c1Cl [Compound 124],95 to 100

# Same assay, conditions: post-emergence, 336 h; CHEAL: lambsquarters (Chenopodium album); 140 g ai/ha; post-emergent; 14 days after application; read-out: Visual Growth Reduction (%) 14 Days After Application CHEAL
row,SMILES,pest or weed control at 140 g/ha [%]
1,Nc1cc(-c2ccc(I)cc2F)nc(C(=O)O)c1Cl [Compound 124],95 to 100

# Same assay, conditions: post-emergence, 336 h; EPHHL: wild poinsettia (Euphorbia heterophylla); 70 g ai/ha; post-emergent; 14 days after application; read-out: Visual Growth Reduction (%) 14 Days After Application EPHHL
row,SMILES,pest or weed control at 70 g/ha [%]
1,Nc1cc(-c2ccc(I)cc2F)nc(C(=O)O)c1Cl [Compound 124],95 to 100

# Same assay, conditions: post-emergence, 336 h; EPHHL: wild poinsettia (Euphorbia heterophylla); 140 g ai/ha; post-emergent; 14 days after application; read-out: Visual Growth Reduction (%) 14 Days After Application EPHHL
row,SMILES,pest or weed control at 140 g/ha [%]
1,Nc1cc(-c2ccc(I)cc2F)nc(C(=O)O)c1Cl [Compound 124],95 to 100

# Same assay, conditions: post-emergence, 336 h; HELAN: sunflower (Helianthus annuus); 70 g ai/ha; post-emergent; 14 days after application; read-out: Visual Growth Reduction (%) 14 Days After Application HELAN
row,SMILES,pest or weed control at 70 g/ha [%]
1,Nc1cc(-c2ccc(I)cc2F)nc(C(=O)O)c1Cl [Compound 124],85 to 94

# Same assay, conditions: post-emergence, 336 h; HELAN: sunflower (Helianthus annuus); 140 g ai/ha; post-emergent; 14 days after application; read-out: Visual Growth Reduction (%) 14 Days After Application HELAN
row,SMILES,pest or weed control at 140 g/ha [%]
1,Nc1cc(-c2ccc(I)cc2F)nc(C(=O)O)c1Cl [Compound 124],85 to 94

# Same assay, conditions: post-emergence, 336 h; VIOTR: wild pansy (Viola tricolor); 70 g ai/ha; post-emergent; 14 days after application; read-out: Visual Growth Reduction (%) 14 Days After Application VIOTR
row,SMILES,pest or weed control at 70 g/ha [%]
1,Nc1cc(-c2ccc(I)cc2F)nc(C(=O)O)c1Cl [Compound 124],95 to 100

# Same assay, conditions: post-emergence, 336 h; VIOTR: wild pansy (Viola tricolor); 140 g ai/ha; post-emergent; 14 days after application; read-out: Visual Growth Reduction (%) 14 Days After Application VIOTR
row,SMILES,pest or weed control at 140 g/ha [%]
1,Nc1cc(-c2ccc(I)cc2F)nc(C(=O)O)c1Cl [Compound 124],95 to 100

# Tested on: Key Grass and Sedge Weeds as well as Grass Crops
# Assay: Post-emergent Test II herbicidal activity (Table 6)
# Assay type: in vivo
# Settings: Triticum aestivum, post-emergence, 336 h, TRZSS (wheat), application rate 70 g ai/ha, read-out: Visual Growth Reduction (%) 14 Days After Application, TRZSS
# How it was run: as §1
row,SMILES,pest or weed control at 70 g/ha [%]
1,Nc1cc(-c2ccc(I)cc2F)nc(C(=O)O)c1Cl [Compound 124],45 to 59

# Same assay, conditions: Triticum aestivum, post-emergence, 336 h, TRZSS (wheat), application rate 140 g ai/ha, read-out: Visual Growth Reduction (%) 14 Days After Application, TRZSS
row,SMILES,pest or weed control at 140 g/ha [%]
1,Nc1cc(-c2ccc(I)cc2F)nc(C(=O)O)c1Cl [Compound 124],60 to 74

# Same assay, conditions: post-emergence, 336 h, CYPES: yellow nutsedge (Cyperus esculentus), application rate 70 g ai/ha, read-out: Visual Growth Reduction (%) 14 Days After Application, CYPES
row,SMILES,pest or weed control at 70 g/ha [%]
1,Nc1cc(-c2ccc(I)cc2F)nc(C(=O)O)c1Cl [Compound 124],95 to 100

# Same assay, conditions: post-emergence, 336 h, CYPES: yellow nutsedge (Cyperus esculentus), application rate 140 g ai/ha, read-out: Visual Growth Reduction (%) 14 Days After Application, CYPES
row,SMILES,pest or weed control at 140 g/ha [%]
1,Nc1cc(-c2ccc(I)cc2F)nc(C(=O)O)c1Cl [Compound 124],95 to 100

# Same assay, conditions: post-emergence, 336 h, DIGSA: crabgrass (Digitaria sanguinalis), application rate 70 g ai/ha, read-out: Visual Growth Reduction (%) 14 Days After Application, DIGSA
row,SMILES,pest or weed control at 70 g/ha [%]
1,Nc1cc(-c2ccc(I)cc2F)nc(C(=O)O)c1Cl [Compound 124],75 to 84

# Same assay, conditions: post-emergence, 336 h, DIGSA: crabgrass (Digitaria sanguinalis), application rate 140 g ai/ha, read-out: Visual Growth Reduction (%) 14 Days After Application, DIGSA
row,SMILES,pest or weed control at 140 g/ha [%]
1,Nc1cc(-c2ccc(I)cc2F)nc(C(=O)O)c1Cl [Compound 124],85 to 94

# Same assay, conditions: post-emergence, 336 h, ECHCG: barnyardgrass (Echinochloa crus-galli), application rate 70 g ai/ha, read-out: Visual Growth Reduction (%) 14 Days After Application, ECHCG
row,SMILES,pest or weed control at 70 g/ha [%]
1,Nc1cc(-c2ccc(I)cc2F)nc(C(=O)O)c1Cl [Compound 124],85 to 94

# Same assay, conditions: post-emergence, 336 h, ECHCG: barnyardgrass (Echinochloa crus-galli), application rate 140 g ai/ha, read-out: Visual Growth Reduction (%) 14 Days After Application, ECHCG
row,SMILES,pest or weed control at 140 g/ha [%]
1,Nc1cc(-c2ccc(I)cc2F)nc(C(=O)O)c1Cl [Compound 124],85 to 94

# Same assay, conditions: post-emergence, 336 h, ORYSA: rice (Oryza sativa), application rate 70 g ai/ha, read-out: Visual Growth Reduction (%) 14 Days After Application, ORYSA
row,SMILES,pest or weed control at 70 g/ha [%]
1,Nc1cc(-c2ccc(I)cc2F)nc(C(=O)O)c1Cl [Compound 124],30 to 44

# Same assay, conditions: post-emergence, 336 h, ORYSA: rice (Oryza sativa), application rate 140 g ai/ha, read-out: Visual Growth Reduction (%) 14 Days After Application, ORYSA
row,SMILES,pest or weed control at 140 g/ha [%]
1,Nc1cc(-c2ccc(I)cc2F)nc(C(=O)O)c1Cl [Compound 124],30 to 44

# Same assay, conditions: post-emergence, 336 h, SETFA: giant foxtail (Setaria faberi), application rate 70 g ai/ha, read-out: Visual Growth Reduction (%) 14 Days After Application, SETFA
row,SMILES,pest or weed control at 70 g/ha [%]
1,Nc1cc(-c2ccc(I)cc2F)nc(C(=O)O)c1Cl [Compound 124],60 to 74

# Same assay, conditions: post-emergence, 336 h, SETFA: giant foxtail (Setaria faberi), application rate 140 g ai/ha, read-out: Visual Growth Reduction (%) 14 Days After Application, SETFA
row,SMILES,pest or weed control at 140 g/ha [%]
1,Nc1cc(-c2ccc(I)cc2F)nc(C(=O)O)c1Cl [Compound 124],95 to 100

# Same assay, conditions: post-emergence, 336 h, SORVU: grain sorghum (Sorghum vulgare), application rate 70 g ai/ha, read-out: Visual Growth Reduction (%) 14 Days After Application, SORVU
row,SMILES,pest or weed control at 70 g/ha [%]
1,Nc1cc(-c2ccc(I)cc2F)nc(C(=O)O)c1Cl [Compound 124],95 to 100

# Same assay, conditions: post-emergence, 336 h, SORVU: grain sorghum (Sorghum vulgare), application rate 140 g ai/ha, read-out: Visual Growth Reduction (%) 14 Days After Application, SORVU
row,SMILES,pest or weed control at 140 g/ha [%]
1,Nc1cc(-c2ccc(I)cc2F)nc(C(=O)O)c1Cl [Compound 124],95 to 100

# Same assay, conditions: post-emergence, 336 h, ZEAMX: maize, corn (Zea mays), application rate 70 g ai/ha, read-out: Visual Growth Reduction (%) 14 Days After Application, ZEAMX
row,SMILES,pest or weed control at 70 g/ha [%]
1,Nc1cc(-c2ccc(I)cc2F)nc(C(=O)O)c1Cl [Compound 124],75 to 84

# Same assay, conditions: post-emergence, 336 h, ZEAMX: maize, corn (Zea mays), application rate 140 g ai/ha, read-out: Visual Growth Reduction (%) 14 Days After Application, ZEAMX
row,SMILES,pest or weed control at 140 g/ha [%]
1,Nc1cc(-c2ccc(I)cc2F)nc(C(=O)O)c1Cl [Compound 124],75 to 84

# Tested on: not given
# Assay: not given
# Settings: not given
row,melting point [°C],SMILES
1,208.4 to 210.2,Nc1cc(-c2ccc(I)cc2F)nc(C(=O)O)c1Cl [Compound 124]
